{
  "source": "patent US9980942B2",
  "about": "“Rejuvenation of precursor cells” (Children's Hospital Medical Center, priority 2012, dated 2018)",
  "key": {"[1]": {"biological_target": "T1, Cdc42 (Mus musculus, UniProt P60766)", "T1 construct": "lineage depleted BM cells (10^6) were lysed in a Mg2+ lysis/wash buffer; endogenous in cells; host or cells: lineage-depleted bone marrow (Lin- BM) cells from aged C57BL/6 mice", "T1 sequence (P60766 whole entry, the tested form may be a part)": "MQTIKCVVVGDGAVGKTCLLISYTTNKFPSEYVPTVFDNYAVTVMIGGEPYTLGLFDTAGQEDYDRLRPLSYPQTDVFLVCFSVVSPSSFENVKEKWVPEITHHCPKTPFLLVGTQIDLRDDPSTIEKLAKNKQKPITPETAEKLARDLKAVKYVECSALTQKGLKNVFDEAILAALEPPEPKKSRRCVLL", "assay": "Cdc42-GTPase effector domain pull-down / Western blot", "format": "cell-based", "settings": "CASIN 5 μM, aged lineage depleted bone marrow cells", "experimental": "Relative levels of GTP-bound Cdc42 were determined by an effector pull-down assay. Briefly, lineage depleted BM cells (10^6) were lysed in a Mg2+ lysis/wash buffer (Upstate cell signaling solutions) containing 10% glycerol, 25 mM sodium fluoride, 1 mM sodium orthovanadate and a protease inhibitor cocktail (Roche Diagnostics). Samples were incubated with PAK-1 binding domain/agarose beads and bound (activated) as well as unbound (non-activated) Cdc42 fractions were probed by immunoblotting with an anti-Cdc42 antibody (Millipore, rabbit polyclonal). Activated protein was normalized to total protein and/or β-actin (Sigma) and the relative amount was quantified by densitometry."}, "[2]": {"system": "aged LT-HSCs", "assay": "Competitive serial LT-HSC transplantation after ex vivo CASIN treatment", "format": "in vivo, mouse", "experimental": "For competitive LT-HSC transplantation, young (2-4-month-old) and aged (20-26-month-old) C57BL/6 mice (Ly5.2^+) were used as donors. 200 LT-HSCs were sorted into 96 multi-well plates and cultured (either in suspension or adherent to fibronectin) for 16 hrs in HBSS+10% FBS±CASIN (5 μM) in a water jacketed incubator at 37° C., 5% CO2, 3% O2. Stem cells were then mixed with 3×10^5 BM cells from young (2-4-month-old) BoyJ competitor mice (Ly5.1^+) and then transplanted into BoyJ recipient mice (Ly5.1^+).\nPeripheral blood (PB) chimerism was determined by FACS analysis every 8 weeks. 24 weeks post primary transplants, 2×10^6 BM cells from an individual primary recipient mouse were injected into an individual secondary pre-conditioned recipient BoyJ mouse. Experiment was performed three times with LT-HSCs cultured in suspension and two times with LTHSCs cultured on a fibronectin-coated substrate without any difference in experimental outcome. Primary transplanted mice were regarded engrafted when PB chimerism was higher or equal to 1.0% and contribution was detected in all lineages. Secondary transplanted mice were regarded as engrafted when PB chimerism was higher or equal to 0.5% and contribution was detected in all lineages.\nPB and BM cell immunostaining was performed according to standard procedures and samples were analyzed on a LSRII flow cytometer (BD Biosciences). Lineage FACS analysis data are plotted as the percentage of B220+, CD3+ and Myeloid (Gr-1+, Mac-1+ and Gr-1+Mac-1+) cells among donor-derived Ly5.2^+ cells. As for early hematopoiesis analysis, mononuclear cells were isolated by low-density centrifugation (Histopaque 1083, Sigma) and stained with a cocktail of biotinylated lineage antibodies. After lineage depletion by magnetic separation (Dynalbeads, Invitrogen), cells were stained with anti-Sca-1 (clone D7) (eBioscience), anti-c-kit (clone 2B8) (eBioscience), anti-CD34 (clone RAM34) (eBioscience), anti-CD127 (clone A7R34) (eBioscience), anti-Flk-2 (clone A2F10) (eBioscience) and Streptavidin (eBioscience). Early hematopoiesis FACS analysis data were plotted as percentage of long-term hematopoietic stem cells (LTHSCs, gated as LSK CD34−/lowFlk2−), short-term hematopoietic stem cells (ST-HSCs, gated as LSK CD34+Flk2−) and lymphoid-primed multipotent progenitors (LMPPs, gated as LSK CD34+Flk2+) (Adolfsson et al., 2005) distribution among donor-derived LSKs (Linnegc-kit+sca-1+ cells). LSK and common lymphoid progenitor cells (CLP, gated as Lin−c-Kit−/low Sca-1−/low IL7Rα+) (Karsunky et al., 2008) were plotted as percentage among donor-derived Linneg cells. In order to isolate LT-HSCs, lineage depletion was performed to enrich for lineage negative cells. Lineage negative cells were then stained as aforementioned and sorted using a BD FACS Aria I or a BD FACS Aria III (BD Bioscience)."}, "[3]": {"system": "HSC", "assay": "In vivo rejuvenation of HSC (Example 6)", "parameters": "species or system mice", "experimental": "To test the extent to which CASIN rejuvenates HSC in vivo, aged (20+ months old mice) are given CASIN i. v. or i.p. twice daily for 28 days and compared to young as well as aged solvent injected control groups. In 28 days most of the HSCs cycle at least once in vivo. Subsequently, PB is harvested every 14 days for a total of 2 months and differential blood counts (myeloid cells, lymphoid cells, red blood cells etc) are determined by hemavat counting and flow cytometry. At 3 months post CASIN treatment, when hematopoesis should be fully supported by stem cell activity of the CASIN exposed HSCs, animals are sacrificed and the number of early hematopoietic progenitor cells (Lineage^negc-Kit^+Sca-1^+ or LSK), long-term repopulating-HSC (LSKCD34^low/−Flk-2^−, LT-HSC), lymphoid-primed multi-potent progenitors (LMPPs, LSKCD34^+Flk-2^+11, 23, 24) are determined.\nSeparately, to investigate the effect of CASIN on stem cell fitness and lineage differentiation, standard competitive transplantation assays are performed using the syngeneic CD45.1/CD45.2 surface marker system to differentiate donor from recipient cells. […] Lineage chimerism (myeloid, B- and T-lymphoid) in peripheral blood (PB) is then determined up to 24-weeks post-transplant. […]"}, "[4]": {"system": "aged HSCs", "assay": "Whole genome expression profiling of HSCs", "format": "cell-based", "settings": "CASIN treated aged HSCs", "from_the_text": "Aged HSCs have distinct whole genome expression profiles. To define the effect of Cdc42 inhibition by CASIN on molecular pathways regulating HSCs, cDNA was derived from linearly amplified RNA from CASIN-treated or untreated aged or young HSCs, using tested amplification, array hybridization and bioinformatic analysis services provided by the company Miltenyi. The goal of these experiments was to identify changes in whole genome expression patterns or in functionally defined groups of genes, rather than changes in individual genes. Differences in expression of functional gene groups was confirmed by real-time RT-PCR of selected genes using the standard ABI/Taqman probe system."}},
  "data": [
    {"compound": "OCCNC1CCCc2c1[nH]c1ccc(-c3ccccc3)cc21", "note": "(stereo not shown) [CASIN]", "values": [
      {"measurement": "level of active Cdc42 (Cdc42-GTP)", "setting": "[1]", "result": "reduced the elevated level of active Cdc42 observed in aged primitive hematopoietic cells to the level observed in young cells"},
      {"measurement": "contribution to the B-cell compartment in PB", "setting": "[2]; primary recipients", "result": "increase"},
      {"measurement": "contribution to the myeloid lineage", "setting": "[2]; primary recipients", "result": "reduced"},
      {"measurement": "frequency of donor-derived LT-HSCs among donor-derived LSKs", "setting": "[2]; primary recipients", "result": "significantly reduced"},
      {"measurement": "B-cell and myeloid engraftment in PB and BM", "setting": "[2]; secondary transplant", "result": "indistinguishable from young LT-HSCs"},
      {"measurement": "contribution to the LT-HSC pool in BM", "setting": "[2]; secondary transplant", "result": "indistinguishable from young LT-HSCs"},
      {"measurement": "overall regenerative capacity (chimerism in PB)", "setting": "[2]; secondary transplant, compared to aged LT-HSCs", "result": "increased and stable chimerism in PB"},
      {"measurement": "preferential differentiation towards the myeloid lineage", "setting": "[3]; CASIN-treated aged HSCs", "result": "ameliorated"},
      {"measurement": "chimerism in competitive transplant assays", "setting": "[3]; HSCs from CASIN-treated aged animals", "result": "greater than the overall chimerism supported by aged HSCs and similar to that observed for young HSCs"},
      {"measurement": "whole genome expression pattern", "setting": "[4]", "result": "largely resemble young HSCs"}
    ]}
  ]
}
